Reference: patent publication US5958906A, “Phospholipid derivatives containing higher elements of the fifth main group” (ASTA-Medica Aktiengesellschaft, priority 1992, dated 1999)
Values after ≈ are worked out from the molar mass of the structure shown. Where a name gives a salt, the structure may show the parent alone.

Experiments:
[1] = test system: Leishmania mexicana (promastigotes); test: Inhibiting effect on Leishmania mexicana (promastigotes); format: cell-based; conditions: partially mean values of two values
Experimental: Tests measuring the inhibiting effect on Leishmania mexicana (promastigotes) were conducted in accordance with the procedures set forth in R. F. Stieger et al., European Journal of Biochemistry, Vol.105 (1980), pp.163-175 and D. T. Hardt, and F. R. Opperdoes, Molecular and Biochemical Parasitology Vol. 113 (1984), pp. 159-172.
Inhibiting effect on Leishmania mexicana (promastigotes),
indicated as EC90 values (partially mean values of two values)

KB cells [2] = test: Soft-Agar-Colony-Assay with KB cells in vitro; format: cell-based; conditions: colony formation inhibited up to 90%, effective criterion EC90 <10 μg/ml; for IC90: Homo sapiens
Experimental: Tests with KB cells were carried out as a Soft-Agar-Colony-Assay in accordance with Salmon and Hamburger, N. Engl.
(§1) Values exceeding 100 indicate tumor regressions in relation to the starting size of the tumor. […] Values below 0 indicate that the tumor growth was stimulated. KB in vivo represents a tumor model in which KB cells are transplanted subcutaneously into naked NMRI mice. DMBA in vivo represents a tumor model in which tumors of the milk inguinal were induced chemically in female test rats by administering Dimethylbenzanthracen (DMBA). EC90 values which exceed 10 are considered ineffective.

[3] = test system: tumors of the milk inguinal induced by Dimethylbenzanthracen (DMBA); test: DMBA in vivo: tumors of the milk inguinal induced chemically by Dimethylbenzanthracen, growth inhibition index; set-up: species or system female test rats; conditions: orally, >100 = tumor regression
Experimental: (§2) The substances were administered orally in solution with the help of an esophagus probe (respective dosages in parenthesis).
(§3) Indicated is the growth inhibition index (Wachstumshemmungsindex WHI) in percent which was reached and which can be calculated as follows: [formula] with WC =median tumor weight difference in the reference group based on day 0
(§4) Wt =corresponding value for the treated group
as §1

L1210-cell = L1210-cell culture experiment; format: cell-based; conditions: 90% growth inhibition in vitro vs control
From the text: The EC90 is the concentration of an anti-tumor substance in μg/ml which inhibits the growth of cancer cells by 90% in vitro compared to a control experiment without addition of the anti-tumor substance.

KB cells [4] = test: KB in vivo: KB cells transplanted subcutaneously into naked NMRI mice, growth inhibition index; conditions: orally, >100 = tumor regression
Experimental: as §2, §3, §4, §1

[5] = LD50 on single administration per os in the mouse; conditions: in vivo, po

SMILES | EC90 (KB cells in vitro) (KB cells [2]) | IC90 (KB cells [2]) | further results
CCCCCCCCCCCCCCCCCCOCC(COP(=O)([O-])OCC[As+](C)(C)C)OC (racemic) [Example 24, 1-0-Octadecyl-2-0-methyl-rac-glycerophosphoarsenocholine] | 2.8 µg/mL | – | EC90 inhibiting effect on Leishmania mexicana (promastigotes) [1]: 0.9 µg/mL; EC90 ([1]; molar): 1500 nM; WHI (DMBA in vivo), growth inhibition index ([3]; 4 × 100 mg/kg): 73%
CCCCCCCCCCCCCCCCCCOCC(COP(=O)([O-])OCC[P+](C)(C)C)OC (racemic) [Example 25] | – | 2.7 µg/mL (≈ 4.99 µM) | EC90 ([1]; Leishmania mexicana): 1.8 µg/mL; EC90 ([1]; Leishmania mexicana, molar): 3300 ± 370 nM
CCCCCCCCCCCCCCCCCCOP(=O)([O-])OCC[As+](C)(C)C [Example 1, 2-[[(Octadecyloxy)hydroxyphosphenyl]oxy]-As,As,As-trimethyl ethyl arsonium inner salt] | 3.2 µg/mL | – | EC90 (L1210-cell): 2.9 µg/mL; WHI (KB in vivo), growth inhibition index (KB cells [4]; 1 × 511 mg/kg): 42.9%; EC90 inhibiting effect on Leishmania mexicana (promastigotes) [1]: 0.8 µg/mL; EC90 ([1]; molar): 1800 nM; WHI (DMBA in vivo), growth inhibition index ([3]; 4 × 100 mg/kg): 112.8%
CCCCCCCCCCCCCCCCOP(=O)([O-])OCC[As+](C)(C)C [Example 2, 2-[[(hexadecyloxy)hydroxyphosphinyl]oxy]-As,As,As-trimethyl ethyl arsonium inner salt] | 27 µg/mL | – | –
CCCCCCCC/C=C\CCCCCCCCCCCCOP(=O)([O-])OCC[As+](C)(C)C [Example 3, 2-[[(cis-13-docosenyloxy)hydroxyphosphinyl]oxy-As,As,As-trimethylethylarsoniuminner salt] | > 10 µg/mL | – | LD50 [5]: > 1470 mg/kg
CCCCCCCCCCCCCCCCCCOP(=O)([O-])OCC[P+](C)(C)C [Example 4, 2-[[(octadecyloxy)hydroxyphosphinyl]oxy]-P,P,P-trimethyl ethyl phosphonium inner salt] | – | 3.1 µg/mL | WHI (KB in vivo), growth inhibition index (KB cells [4]; 2 × 316 mg/kg): 111%; EC90 ([1]; Leishmania mexicana): 0.8 µg/mL; EC90 ([1]; Leishmania mexicana, molar): 1800 ± 220 nM; WHI (DMBA in vivo), growth inhibition index ([3]; 4 × 147 mg/kg): 108.7%
CCCCCCCCCCCCCCCCOP(=O)([O-])OCC[P+](C)(C)C [Example 5, 2-[[(hexadecyloxy)hydroxyphosphinyl]oxy]-P,P,P-trimethyl ethyl phosphonium inner salt] | – | > 10 µg/mL | –
CCCCCCCC/C=C\CCCCCCCCCCCCOP(=O)([O-])OCC[P+](C)(C)C [Example 6, 2-[[(Cis-13-docosenyloxy) hydroxyphosphinyl]oxy]-P,P,P-trimethylethyl phosphonium inner salt] | – | > 10 µg/mL | WHI (DMBA in vivo), growth inhibition index ([3]; 4 × 147 mg/kg): 43.9%
CCCCCCCCCCCCCCCCCCOP(=O)([O-])OCC[As+](CC)(CC)CC [Example 7, 2-[[(Octadecyloxy)hydroxyphosphinyl]oxy]-As,As,As-triethyl ethyl arsonium inner salt] | 3.0 µg/mL | – | –
CCCCCCCCCCCCCCCCOP(=O)([O-])OCC[As+](CC)(CC)CC [Example 8, 2-[[(Hexadecyloxy)hydroxyphosphinyl]oxy]-As,As,As-tri-ethyl ethyl arsonium inner salt] | > 10 µg/mL | – | –
CCCCCCCC/C=C\CCCCCCCCCCCCOP(=O)([O-])OCC[As+](CC)(CC)CC [Example 9, 2-[[Cis-13-docosenyloxy)hydroxyphosphinyl]oxy]-As,As,As-triethylethyl arsonium inner salt] | > 10 µg/mL | – | –
CCCCCCCCCCCCCCCCCCOP(=O)([O-])OCCC[As+](C)(C)C [Example 10, 3-[[(Octadecyloxy)hydroxyphosphinyl]oxy]-As,As,As-trimethyl propylarsonium inner salt] | 5.8 µg/mL | – | WHI (KB in vivo), growth inhibition index (KB cells [4]; 2 × 316 mg/kg): 104%
CCCCCCCCCCCCCCCCOP(=O)([O-])OCCC[As+](C)(C)C [Example 11, 3-[[(Hexadecyloxy)hydroxyphosphinyl]oxy]-As,As,As-trimethyl propylarsonium inner salt] | > 10 µg/mL | – | –
CCCCCCCC/C=C\CCCCCCCCCCCCOP(=O)([O-])OCCC[As+](C)(C)C [Example 12, 3-[[(Cis-13-docosenyloxy)hydroxyphosphinyl]oxy]-As,As,As-trimethylpropyl arsonium inner salt] | > 10 µg/mL | – | –
CCCCCCCC/C=C\CCCCCCCCCCCCOP(=O)([O-])OCCC[P+](C)(C)C [Example 13, 3-[[(Cis-13-docosenyloxy)hydroxyphosphinyl]oxy]-P,P,P-tri-methylpropyl phosphonium inner salt] | – | > 10 µg/mL | –
CCCCCCCCCCCCCCCCCCOP(=O)([O-])OCCC[P+](C)(C)C [Example 14, 3-[[(Octadecyloxy)hydroxyphosphinyl]oxy]-P,P,P-trimethylpropyl phosphonium inner salt] | – | 3 µg/mL | –
CCCCCCCCCCCCCCCCOP(=O)([O-])OCCC[P+](C)(C)C [Example 15, 3-[[(Hexadecyloxy)hydroxyphosphinyl]oxy]-P,P,P-trimethylpropyl phosphonium inner salt] | – | > 10 µg/mL | –
CCCCCCCCCCCCCCCCCCCOP(=O)([O-])OCC[P+](C)(C)C [Example 16, 3-[[(Nonadecyloxy)hydroxyphosphinyl]oxy]-P,P,P-trimethyl-ethyl phosphonium inner salt] | – | 2.6 µg/mL | –
CCCCCCCCCCCCCCCCCCCCOP(=O)([O-])OCC[P+](C)(C)C [Example 17, 3-[[(Eicosyloxy)hydroxyphosphinyl]oxy]-P,P,P-trimethylethyl phosphonium inner salt] | – | 3 µg/mL | –
CCCCCCCCCCCCCCCCCCCOP(=O)([O-])OCC[As+](C)(C)C [Example 18, 2-[[(Nonadecyloxy)hydroxyphosphinyl]oxy]-As,As,As-trimethethyl arsonium inner salt] | 3.0 µg/mL | – | –
CCCCCCCCCCCCCCCCCCCCOP(=O)([O-])OCC[As+](C)(C)C [Example 19, 2-[[(Eicosyloxy)hydroxyphosphinyl]oxy]-As,As,As-trimethylethyl arsonium inner salt] | insoluble | – | –
CCCCCCCCCCCCCCCCCOP(=O)([O-])OCC[As+](C)(C)C [Example 20, 2-[[(Heptadecyloxy)hydroxyphosphinyl]oxy]-As,As,As-trimethylethyl arsonium inner salt] | 3.2 µg/mL | – | –
CCCCCCCCCCCCCCCCCCOP(=O)([O-])OCC[P+](CC)(CC)c1ccccc1 [Example 21, 2-[[(Octadecyloxy)hydroxyphosphinyl]oxy]-P,P-diethyl-P-phenyl-ethyl phosphonium inner salt] | – | 3.1 µg/mL | –
CCCCCCCC/C=C\CCCCCCCCCCCCOP(=O)([O-])OCC[P+](CC)(CC)c1ccccc1 [Example 22, 2-[[(Cis-13-docosenyloxy)hydroxyphosphinyl]oxy]-P,P-diethyl P-phenyl-ethyl phosphonium inner salt] | – | 3.1 µg/mL | –
CCCCCCCCCCCCC1CCC(COP(=O)([O-])OCC[As+](C)(C)C)CC1 (stereo not drawn) [Example 23, 2-[[(4'-Dodecylcyclohexyl)methyloxy)hydroxyphosphinyl]oxy]As,As,As-trimethylethyl arsonium inner salt] | > 10 µg/mL | – | –
